Assay results taken from PubChem BioAssay (NCI).
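Tested at 5 concentrations; 48 h exposure; 96-well plates; endpoints linearly interpolated, else capped at highest concentration. GI50: concentration for 50% inhibition of growth. At the TGI there is no net growth.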

Tests used:
Assay in all cases: NCI anticancer screen, dose series, 48 h
[1] = test system: SNB-75 CNS
[2] = test system: OVCAR-5 ovarian
[3] = test system: LOX IMVI melanoma
[4] = test system: PC-3 prostate
[5] = test system: A549 NSCLC
[6] = test system: T-47D breast
[7] = test system: SN12C renal
[8] = test system: SW-620 colon
[9] = test system: SNB-19 CNS
[10] = test system: OVCAR-4 ovarian
[11] = test system: SK-MEL-28 melanoma
[12] = test system: MDA-MB-435
[13] = test system: EKVX NSCLC
[14] = test system: HOP-92 NSCLC
[15] = test system: SK-OV-3 ovarian
[16] = test system: 786-0 renal
[17] = test system: OVCAR-8 ovarian
[18] = test system: A498 renal
[19] = test system: ACHN renal
[20] = test system: SF-268 CNS
[21] = test system: NCI-H460 lung
[22] = test system: HT29 colon
[23] = test system: MALME-3M melanoma
[24] = test system: UACC-62 melanoma
[25] = test system: NCI/ADR-RES ovarian
[26] = test system: MOLT-4 leukemia
[27] = test system: CAKI-1 renal
[28] = test system: UACC-257 melanoma
[29] = test system: HOP-62 NSCLC
[30] = test system: KM12 colon
[31] = test system: HL-60(TB) leukemia
[32] = test system: DU-145 prostate
[33] = test system: NCI-H522 lung
[34] = test system: M14 melanoma
[35] = test system: CCRF-CEM leukemia
[36] = test system: U251 CNS
[37] = test system: NCI-H226 lung
[38] = test system: RPMI-8226 leukemia
[39] = test system: HCT-15 colon
[40] = test system: SR leukemia
[41] = test system: RXF 393 renal
[42] = test system: MDA-MB-231 breast
[43] = test system: HCC-2998 colon
[44] = test system: HCT-116 colon
[45] = test system: HS 578T breast
[46] = test system: SF-295 CNS
[47] = test system: SK-MEL-2 melanoma
[48] = test system: K-562 leukemia
[49] = test system: COLO 205 colon
[50] = test system: TK-10 renal
[51] = test system: IGROV1 ovarian
[52] = test system: BT-549 breast
[53] = test system: UO-31 renal
[54] = test system: SF-539 CNS
[55] = test system: SK-MEL-5 melanoma
[56] = test system: OVCAR-3 ovarian
[57] = test system: MCF7 breast

In the case of `CCNC(=O)N1CCc2cc(OC)c(OCCc3ccc(OC)nc3)cc2C1c1ccc(C)cc1C` (centres undefined), the GI50 [1] is reported as 667 nM, the TGI [1] is reported as > 23500 nM and the GI50 [2] is reported as 2020 nM. For the same compound, the TGI [2] was > 100000 nM, the GI50 [3] was 308 nM and the TGI [3] was 5410 nM. For the same compound, the GI50 [4] was 719 nM, the TGI [4] was > 71800 nM and the GI50 [5] was 984 nM. The TGI [5] was > 100000 nM, the GI50 [6] was 2680 nM and the TGI [6] was 64500 nM. The GI50 [7] was 1100 nM, the TGI [7] was 15400 nM and the GI50 [8] was 466 nM. For the same compound, the TGI [8] was > 100000 nM, the GI50 [9] was 837 nM and the TGI [9] was > 100000 nM. The GI50 [10] was 3300 nM, the TGI [10] was > 100000 nM and the GI50 [11] was 873 nM. For the same compound, the TGI [11] was 32100 nM, the GI50 [12] was 370 nM and the TGI [12] was 5890 nM. For the same compound, the GI50 [13] was 4030 nM, the TGI [13] was > 100000 nM and the GI50 [14] was 4520 nM. The TGI [14] was 27400 nM, the GI50 [15] was 2670 nM and the TGI [15] was > 100000 nM. The GI50 [16] was 687 nM, the TGI [16] was > 100000 nM and the GI50 [17] was 675 nM. The TGI [17] was > 43100 nM, the GI50 [18] was 1390 nM and the TGI [18] was 14300 nM. For the same compound, the GI50 [19] was 662 nM, the TGI [19] was 91100 nM and the GI50 [20] was 927 nM. The TGI [20] was 50100 nM, the GI50 [21] was 241 nM and the TGI [21] was 6360 nM. It also gave a GI50 [22] of 573 nM, a TGI [22] of 10500 nM and a GI50 [23] of 1350 nM. For the same compound, the TGI [23] was 50200 nM, the GI50 [24] was 430 nM and the TGI [24] was 12200 nM. For the same compound, the GI50 [25] was 659 nM, the TGI [25] was 38800 nM and the GI50 [26] was 416 nM. For the same compound, the TGI [26] was 35500 nM, the GI50 [27] was 611 nM and the TGI [27] was > 100000 nM. The GI50 [28] was 2290 nM, the TGI [28] was 50500 nM and the GI50 [29] was 1350 nM. For the same compound, the TGI [29] was > 37500 nM, the GI50 [30] was 634 nM and the TGI [30] was > 40400 nM. For the same compound, the GI50 [31] was 651 nM, the TGI [31] was 3820 nM and the GI50 [32] was 858 nM. It also gave a TGI [32] of 24000 nM, a GI50 [33] of 523 nM and a TGI [33] of 2720 nM. The GI50 [34] was 722 nM, the TGI [34] was 19300 nM and the GI50 [35] was 519 nM. The TGI [35] was 55000 nM, the GI50 [36] was 636 nM and the TGI [36] was 17500 nM. The GI50 [37] was 1730 nM, the TGI [37] was 11400 nM and the GI50 [38] was 531 nM. The TGI [38] was 3580 nM, the GI50 [39] was 156 nM and the TGI [39] was > 60200 nM. The GI50 [40] was 207 nM, the TGI [40] was 2960 nM and the GI50 [41] was 1070 nM. The TGI [41] was 15000 nM, the GI50 [42] was 1140 nM and the TGI [42] was 30200 nM. For the same compound, the GI50 [43] was 1560 nM, the TGI [43] was 17800 nM and the GI50 [44] was 299 nM. For the same compound, the TGI [44] was 20700 nM, the GI50 [45] was 1530 nM and the TGI [45] was 10600 nM. For the same compound, the GI50 [46] was 574 nM, the TGI [46] was 8800 nM and the GI50 [47] was 3330 nM. The TGI [47] was 16400 nM, the GI50 [48] was 259 nM and the TGI [48] was > 100000 nM. The GI50 [49] was 792 nM, the TGI [49] was 4170 nM and the GI50 [50] was 5000 nM. For the same compound, the TGI [50] was > 100000 nM, the GI50 [51] was 743 nM and the TGI [51] was > 100000 nM. The GI50 [52] was 1550 nM, the TGI [52] was 7450 nM and the GI50 [53] was 929 nM. For the same compound, the TGI [53] was > 100000 nM, the GI50 [54] was 501 nM and the TGI [54] was 5230 nM. For the same compound, the GI50 [55] was 839 nM, the TGI [55] was 2710 nM and the GI50 [56] was 1340 nM. For the same compound, the TGI [56] was 24300 nM, the GI50 [57] was 443 nM and the TGI [57] was > 100000 nM.
